system: MOLM-13 cells; assay: MOLM-13 Cell Proliferation Assay (indicator of DHODH inhibition); assay type: cell-based; settings: Homo sapiens, 72 Hours of culture, CellTiter-Glo, no uridine
In short: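 Low-passage MOLM-13 cells (10^4/well) in RPMI 1640 + 10% FBS exposed to compound (0.5% DMSO final) for 72 h at 37 °C, 5% CO2. Viability read by CellTiter-Glo luminescence; growth reflects de novo pyrimidine synthesis dependent on DHODH.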

Compound | IC50 [nM]
Cc1ccc(C2c3[nH]c4ccc(Cl)c(F)c4c3CCN2c2nc(C#N)cc(C#N)n2)c(F)c1F (stereo not shown) [Compound 229, 2-[6-chloro-1-(2,3-difluoro-4-methylphenyl)-5-fluoro-1,3,4,9-tetrahydro-2H-pyrido[3,4-b]indol-2-yl]pyrimidine-4,6-dicarbonitrile] | 1.9
Fc1c(Cl)ccc2[nH]c3c(c12)CCN(c1nccc(C(F)(F)F)n1)C3c1cnc(-n2cncn2)nc1 (stereo not shown) [Compound 230, 6-chloro-5-fluoro-1-[2-(1H-1,2,4-triazol-1-yl)pyrimidin-5-yl]-2-[4-(trifluoromethyl)pyrimidin-2-yl]-2,3,4,9-tetrahydro-1H-pyrido[3,4-b]indole] | 8.3
Cc1cc(C#N)nc(N2CCc3c([nH]c4ccc(Cl)c(F)c34)C2c2ccc(C)c(F)c2F)n1 (stereo not shown) [Compound 232, 2-[6-chloro-1-(2,3-difluoro-4-methylphenyl)-5-fluoro-1,3,4,9-tetrahydro-2H-pyrido[3,4-b]indol-2-yl]-6-methylpyrimidine-4-carbonitrile] | 0.5
Cc1ccnc(N2CCc3c([nH]c4ccc(Cl)cc34)[C@@H]2c2ccc(C)c(F)c2F)n1 [Compound 234, (1S)-6-chloro-1-(2,3-difluoro-4-methylphenyl)-2-(4-methylpyrimidin-2-yl)-2,3,4,9-tetrahydro-1H-pyrido[3,4-b]indole] | 0.8
Cc1ccc(C2c3[nH]c4ccc(Cl)cc4c3CCN2c2ncc(F)c(C)n2)c(F)c1F (stereo not shown) [Compound 235, 6-chloro-1-(2,3-difluoro-4-methylphenyl)-2-(5-fluoro-4-methylpyrimidin-2-yl)-2,3,4,9-tetrahydro-1H-pyrido[3,4-b]indole] | 1.5
N#Cc1ccnc(N2CCc3c([nH]c4ccc(Cl)c(F)c34)C2c2ccc(/C=C/CCO)cc2)n1 (stereo not shown) [Compound 236, 2-(6-chloro-5-fluoro-1-{4-[(1E)-4-hydroxybut-1-en-1-yl]phenyl}-1,3,4,9-tetrahydro-2H-pyrido[3,4-b]indol-2-yl)pyrimidine-4-carbonitrile] | 1.8
Cc1ccnc(N2CCc3c([nH]c4ccc(Cl)c(F)c34)C2c2ccc(/C=C/CCO)cc2)n1 (stereo not shown) [Compound 237, (3E)-4-{4-[6-chloro-5-fluoro-2-(4-methylpyrimidin-2-yl)-2,3,4,9-tetrahydro-1H-pyrido[3,4-b]indol-1-yl]phenyl}but-3-en-1-ol] | 4.7
Cc1ccc([C@H]2c3[nH]c4ccc(Cl)cc4c3CCN2c2ncc(F)cn2)c(F)c1F [Compound 238, (1S)-6-chloro-1-(2,3-difluoro-4-methylphenyl)-2-(5-fluoropyrimidin-2-yl)-2,3,4,9-tetrahydro-1H-pyrido[3,4-b]indole] | 0.9
Cc1nc(N2CCc3c([nH]c4cc(F)c(Cl)cc34)C2c2ccc(/C=C/CCO)cc2)ncc1F (stereo not shown) [Compound 239, (3E)-4-{4-[6-chloro-7-fluoro-2-(5-fluoro-4-methylpyrimidin-2-yl)-2,3,4,9-tetrahydro-1H-pyrido[3,4-b]indol-1-yl]phenyl}but-3-en-1-ol] | 2.5
Cc1nc(N2CCc3c([nH]c4cc(F)c(Cl)cc34)C2c2ccc(CCCCO)cc2)ncc1F (stereo not shown) [Compound 240, 4-{4-[6-chloro-7-fluoro-2-(5-fluoro-4-methylpyrimidin-2-yl)-2,3,4,9-tetrahydro-1H-pyrido[3,4-b]indol-1-yl]phenyl}butan-1-ol] | 4.1
Cc1nc(N2CCc3c([nH]c4ccc(Cl)c(F)c34)C2c2ccc(/C=C/CCO)cc2)ncc1F (stereo not shown) [Compound 241, (3E)-4-{4-[6-chloro-5-fluoro-2-(5-fluoro-4-methylpyrimidin-2-yl)-2,3,4,9-tetrahydro-1H-pyrido[3,4-b]indol-1-yl]phenyl}but-3-en-1-ol] | 3.4
Cc1cc(C)nc(N2CCc3c([nH]c4ccc(Cl)c(F)c34)C2c2ccc(/C=C/CCO)cc2)n1 (stereo not shown) [Compound 242, (3E)-4-{4-[6-chloro-2-(4,6-dimethylpyrimidin-2-yl)-5-fluoro-2,3,4,9-tetrahydro-1H-pyrido[3,4-b]indol-1-yl]phenyl}but-3-en-1-ol] | 3.2
Cc1nc(N2CCc3c([nH]c4ccc(Cl)c(F)c34)C2c2ccc(/C=C/CCO)cc2)nc(C)c1F (stereo not shown) [Compound 243, (3E)-4-{4-[6-chloro-5-fluoro-2-(5-fluoro-4,6-dimethylpyrimidin-2-yl)-2,3,4,9-tetrahydro-1H-pyrido[3,4-b]indol-1-yl]phenyl}but-3-en-1-ol] | 1.1
Cc1cc(C)nc(N2CCc3c([nH]c4cc(F)c(Cl)cc34)C2c2ccc(/C=C/CCO)cc2)n1 (stereo not shown) [Compound 244, (3E)-4-{4-[6-chloro-2-(4,6-dimethylpyrimidin-2-yl)-7-fluoro-2,3,4,9-tetrahydro-1H-pyrido[3,4-b]indol-1-yl]phenyl}but-3-en-1-ol] | 2.8
FC(F)(F)c1ccnc(N2CCc3c([nH]c4ccc(Cl)c(Br)c34)C2c2ccc(Cl)cc2)n1 (stereo not shown) [Compound 247, 5-bromo-6-chloro-1-(4-chlorophenyl)-2-[4-(trifluoromethyl)pyrimidin-2-yl]-2,3,4,9-tetrahydro-1H-pyrido[3,4-b]indole] | 1.8

Other lines, results leading:

IC50 [nM] | Compound
3.6 | Cc1cc(C)nc(N2CCc3c([nH]c4cc(F)c(Cl)cc34)C2c2ccc(CCCCO)cc2)n1 (stereo not shown) [Compound 245, 4-{4-[6-chloro-2-(4,6-dimethylpyrimidin-2-yl)-7-fluoro-2,3,4,9-tetrahydro-1H-pyrido[3,4-b]indol-1-yl]phenyl}butan-1-ol]
2.8 | Cc1nc(N2CCc3c([nH]c4ccc(Cl)c(F)c34)C2c2ccc(CCCCO)cc2)ncc1F (stereo not shown) [Compound 246, 4-{4-[6-chloro-5-fluoro-2-(5-fluoro-4-methylpyrimidin-2-yl)-2,3,4,9-tetrahydro-1H-pyrido[3,4-b]indol-1-yl]phenyl}butan-1-ol]
2.2 | Cc1nc(N2CCc3c([nH]c4cc(F)c(Cl)cc34)C2c2ccc(CCCCO)cc2)nc(C)c1F (stereo not shown) [Compound 249, 4-{4-[6-chloro-7-fluoro-2-(5-fluoro-4,6-dimethylpyrimidin-2-yl)-2,3,4,9-tetrahydro-1H-pyrido[3,4-b]indol-1-yl]phenyl}butan-1-ol]
86.1 | Oc1cc2[nH]c3c(c2cc1Cl)CCN(c1nccc(C(F)(F)F)n1)C3c1ccc(Cl)cc1 (stereo not shown) [Compound 250, 6-chloro-1-(4-chlorophenyl)-2-[4-(trifluoromethyl)pyrimidin-2-yl]-2,3,4,9-tetrahydro-1H-pyrido[3,4-b]indol-7-ol]
2 | FC(F)(F)c1ccnc(N2CCc3c([nH]c4ccc(Cl)cc34)C2c2cnc(N3CCOCC3)nc2)n1 (stereo not shown) [Compound 251, 6-chloro-1-[2-(morpholin-4-yl)pyrimidin-5-yl]-2-[4-(trifluoromethyl)pyrimidin-2-yl]-2,3,4,9-tetrahydro-1H-pyrido[3,4-b]indole]
2 | Oc1c(F)cccc1C1c2[nH]c3ccc(Cl)cc3c2CCN1c1nccc(C(F)(F)F)n1 (stereo not shown) [Compound 252, 2-{6-chloro-2-[4-(trifluoromethyl)pyrimidin-2-yl]-2,3,4,9-tetrahydro-1H-pyrido[3,4-b]indol-1-yl}-6-fluorophenol]
3.6 | Oc1cccc(C2c3[nH]c4ccc(Cl)cc4c3CCN2c2nccc(C(F)(F)F)n2)c1F (stereo not shown) [Compound 256, 3-{6-chloro-2-[4-(trifluoromethyl)pyrimidin-2-yl]-2,3,4,9-tetrahydro-1H-pyrido[3,4-b]indol-1-yl}-2-fluorophenol]
1.3 | Cc1ccc(C2c3[nH]c4ccc(Cl)cc4c3CCN2c2nccc(C(F)(F)F)n2)c(O)c1 (stereo not shown) [Compound 257, 2-{6-chloro-2-[4-(trifluoromethyl)pyrimidin-2-yl]-2,3,4,9-tetrahydro-1H-pyrido[3,4-b]indol-1-yl}-5-methylphenol]
28.3 | Cc1ccc(C2c3[nH]c4ccc(Cl)cc4c3CCN2c2nccc(C(F)(F)F)n2)cc1O (stereo not shown) [Compound 258, 5-{6-chloro-2-[4-(trifluoromethyl)pyrimidin-2-yl]-2,3,4,9-tetrahydro-1H-pyrido[3,4-b]indol-1-yl}-2-methylphenol]
1 | Cc1cccc(C2c3[nH]c4ccc(Cl)cc4c3CCN2c2nccc(C(F)(F)F)n2)c1F (stereo not shown) [Compound 259, 6-chloro-1-(2-fluoro-3-methylphenyl)-2-[4-(trifluoromethyl)pyrimidin-2-yl]-2,3,4,9-tetrahydro-1H-pyrido[3,4-b]indole]
6.3 | FC(F)(F)c1ccnc(N2CCc3c([nH]c4ccc(Cl)cc34)C2c2ccc(-n3ccnc3)cc2)n1 (stereo not shown) [Compound 260, 6-chloro-1-[4-(1H-imidazol-1-yl)phenyl]-2-[4-(trifluoromethyl)pyrimidin-2-yl]-2,3,4,9-tetrahydro-1H-pyrido[3,4-b]indole]
1.2 | FC(F)(F)c1ccnc(N2CCc3c([nH]c4ccc(Cl)cc34)C2c2ccc(-n3cccn3)cc2)n1 (stereo not shown) [Compound 261, 6-chloro-1-[4-(1H-pyrazol-1-yl)phenyl]-2-[4-(trifluoromethyl)pyrimidin-2-yl]-2,3,4,9-tetrahydro-1H-pyrido[3,4-b]indole]
1.3 | FC(F)(F)c1ccnc(N2CCc3c([nH]c4ccc(Cl)cc34)C2c2ccc(N3CCOCC3)cc2)n1 (stereo not shown) [Compound 262, 6-chloro-1-[4-(morpholin-4-yl)phenyl]-2-[4-(trifluoromethyl)pyrimidin-2-yl]-2,3,4,9-tetrahydro-1H-pyrido[3,4-b]indole]
2.5 | Fc1ccc(C2c3[nH]c4ccc(Cl)cc4c3CCN2c2nccc(C(F)(F)F)n2)c(F)c1F (stereo not shown) [Compound 263, 6-chloro-2-[4-(trifluoromethyl)pyrimidin-2-yl]-1-(2,3,4-trifluorophenyl)-2,3,4,9-tetrahydro-1H-pyrido[3,4-b]indole]
1.3 | Cc1ccc(C2c3[nH]c4ccc(Cl)c([N+](=O)[O-])c4c3CCN2c2nccc(C(F)(F)F)n2)c(F)c1F (stereo not shown) [Compound 266, 6-chloro-1-(2,3-difluoro-4-methylphenyl)-5-nitro-2-[4-(trifluoromethyl)pyrimidin-2-yl]-2,3,4,9-tetrahydro-1H-pyrido[3,4-b]indole]
2.7 | Fc1cc(Cl)ccc1C1c2[nH]c3ccc(Cl)cc3c2CCN1c1nccc(C(F)(F)F)n1 (stereo not shown) [Compound 267, 6-chloro-1-(4-chloro-2-fluorophenyl)-2-[4-(trifluoromethyl)pyrimidin-2-yl]-2,3,4,9-tetrahydro-1H-pyrido[3,4-b]indole]
